# Source: ChEMBL document CHEMBL5338790, “Discovery of Subcellular-Targeted Aza-BODIPY Photosensitizers for Efficient Photodynamic Antitumor Therapy” (J Med Chem, 2023)
# pIC50: −log10 of the molar value. Calls of active or inactive are those of the source. The calls are words filed in the database; no cut-off is given here.
# Key:
# [1] = Cytotoxicity against human HeLa cells assessed as inhibition of cell viability under dark condition incubated for 27 hrs by CCK8 assay; format: toxicity, cell-based
# HeLa [2] = experiment: Photodynamic cytotoxicity against human HeLa cells assessed as inhibition of cell viability incubated for 3 hrs followed by photo-irradiation at 54 J/cm2 measured after 24 hrs by CCK8 assay; format: functional, cell-based; settings: light or radiation study
# [3] = Cytotoxicity against human HepG2 cells assessed as inhibition of cell viability under dark condition incubated for 27 hrs by CCK8 assay; format: toxicity, cell-based
# HepG2 = experiment: Photodynamic cytotoxicity against human HepG2 cells assessed as inhibition of cell viability incubated for 3 hrs followed by photo-irradiation at 54 J/cm2 measured after 24 hrs by CCK8 assay; format: functional, cell-based; settings: HepG2, light or radiation study
# [4] = Cytotoxicity against mouse B16-F10 cells assessed as inhibition of cell viability under dark condition incubated for 27 hrs by CCK8 assay; format: toxicity, cell-based
# B16-F10 = experiment: Photodynamic cytotoxicity against mouse B16-F10 cells assessed as inhibition of cell viability incubated for 3 hrs followed by photo-irradiation at 54 J/cm2 measured after 24 hrs by CCK8 assay; format: functional, cell-based; settings: B16-F10, light or radiation study
# [5] = Cytotoxicity against HUVEC cells assessed as inhibition of cell viability under dark condition incubated for 27 hrs by CCK8 assay; format: toxicity, cell-based; settings: human
# HUVEC = experiment: Photodynamic cytotoxicity against HUVEC cells assessed as inhibition of cell viability incubated for 3 hrs followed by photo-irradiation at 54 J/cm2 measured after 24 hrs by CCK8 assay; format: functional, cell-based; settings: Homo sapiens, light or radiation study
# [6] = Drug uptake in human HeLa cells at 5 uM by confocal scanning microscopy; format: ADME, cell-based; settings: 3 h, TDE = time-dependent effect
# [7] = Toxicity in Balb/C nu/nu mouse xenografted with human HeLa cells assessed as change in heart histology at 2.5 umol/kg, iv with photo-irradiation at 30 J/cm2 after 1 hr of compound administration measured after 24 days by H and E staining based analysis; format: organism-based; settings: in vivo, 576 h, dose 2.5 µmol/kg, time 24 day
# HeLa [8] = experiment: Induction of ROS production in human HeLa cells preincubated for 2 hrs followed by H2DCFDA probe exposure for 30 mins and subsequent removal of probe with photo-irradiation at 16 J/cm2 by confocal scanning microscopic analysis; format: functional, cell-based; settings: dose <= 200.0 nM, time 2.5 hrs
# HeLa [9] = experiment: Induction of ROS production in human HeLa cells upto 200 nM preincubated for 2 hrs followed by H2DCFDA probe exposure for 30 mins and subsequent removal of probe by confocal scanning microscopic analysis; format: functional, cell-based; settings: time 2.5 hrs
# HeLa [10] = experiment: Antitumor activity against human HeLa cells xenografted in Balb/C nu/nu mouse assessed as tumor growth inhibition at 2.5 umol/kg, iv with photo-irradiation at 30 J/cm2 after 1 hr of compound administration measured for 6 days; format: functional, organism-based; settings: dose 2.5 µmol/kg, time 6.0 day
# [11] = Toxicity in Balb/C nu/nu mouse xenografted with human HeLa cells assessed as drug tolerance at 2.5 umol/kg, iv with photo-irradiation at 30 J/cm2 after 1 hr of compound administration measured for 24 days; format: organism-based; settings: in vivo, 576 h, dose 2.5 µmol/kg, time 24 day
# [12] = Toxicity in Balb/C nu/nu mouse xenografted with human HeLa cells assessed as increase in body weight at 2.5 umol/kg, iv with photo-irradiation at 30 J/cm2 after 1 hr of compound administration measured for 24 days; format: organism-based; settings: in vivo, 576 h, dose 2.5 µmol/kg, time 24 day
# [13] = Toxicity in Balb/C nu/nu mouse xenografted with human HeLa cells assessed as change in liver histology at 2.5 umol/kg, iv with photo-irradiation at 30 J/cm2 after 1 hr of compound administration measured after 24 days by H and E staining based analysis; format: organism-based; settings: in vivo, 576 h, dose 2.5 µmol/kg, time 24 day
# [14] = Toxicity in Balb/C nu/nu mouse xenografted with human HeLa cells assessed as change in spleen histology at 2.5 umol/kg, iv with photo-irradiation at 30 J/cm2 after 1 hr of compound administration measured after 24 days by H and E staining based analysis; format: organism-based; settings: in vivo, 576 h, dose 2.5 µmol/kg, time 24 day
# [15] = Toxicity in Balb/C nu/nu mouse xenografted with human HeLa cells assessed as change in lung histology at 2.5 umol/kg, iv with photo-irradiation at 30 J/cm2 after 1 hr of compound administration measured after 24 days by H and E staining based analysis; format: organism-based; settings: in vivo, 576 h, dose 2.5 µmol/kg, time 24 day
# [16] = Toxicity in Balb/C nu/nu mouse xenografted with human HeLa cells assessed as change in kidney histology at 2.5 umol/kg, iv with photo-irradiation at 30 J/cm2 after 1 hr of compound administration measured after 24 days by H and E staining based analysis; format: organism-based; settings: in vivo, 576 h, dose 2.5 µmol/kg, time 24 day
# HeLa [17] = experiment: Antitumor activity against human HeLa cells xenografted in Balb/C nu/nu mouse assessed as reduction in tumor histology at 2.5 umol/kg, iv with photo-irradiation at 30 J/cm2 after 1 hr of compound administration measured after 24 days by H and E staining based analysis; format: functional, organism-based; settings: dose 2.5 µmol/kg, time 24.0 day
# [18] = Drug uptake in human HeLa cells at 5 uM incubated for 3 hrs by confocal scanning microscopy; format: ADME, cell-based
# [19] = Drug localization in mitochondria of human HeLa cells at 5 uM incubated for 30 mins by MitoTracker Green FM dye based confocal scanning microscopic analysis; format: ADME; settings: 0.5 h
# [20] = Drug localization in endoplasmic reticulum of human HeLa cells at 5 uM incubated for 30 mins by ER-Tracker Green dye based confocal scanning microscopic analysis; format: ADME; settings: 0.5 h
# [21] = Drug localization in lysosome of human HeLa cells at 5 uM incubated for 30 mins by Lyso-tracker Green DND-26 dye based confocal scanning microscopic analysis; format: ADME, subcellular; settings: 0.5 h
# HeLa [22] = experiment: Induction of ROS production in human HeLa cells upto 200 nM preincubated for 2 hrs followed by H2DCFDA probe exposure for 30 mins and subsequent removal of probe with photo-irradiation at 16 J/cm2 by confocal scanning microscopic analysis; format: functional, cell-based; settings: time 2.5 hrs
# HeLa [23] = experiment: Antitumor activity against human HeLa cells xenografted in Balb/C nu/nu mouse assessed as tumor growth inhibition at 2.5 umol/kg, iv with photo-irradiation at 30 J/cm2 after 1 hr of compound administration measured for 24 days; format: functional, organism-based; settings: dose 2.5 µmol/kg, time 24.0 day
Drug uptake [6],SMILES,IC50 at 27 h [1],pIC50 (HeLa [2]),IC50 at 27 h [3],pIC50 (HepG2),IC50 at 27 h [4],pIC50 (B16-F10),IC50 at 27 h [5],pIC50 (HUVEC),also measured
Tde,Br.COc1ccc2c(c1)CCc1c(-c3ccccc3)c3n(c1-2)[B-](F)(F)[N+]1=C(c2ccc(OCc4cn(CCC[P+](c5ccccc5)(c5ccccc5)c5ccccc5)nn4)cc2)C(I)=C(c2ccccc2)C1=N3,10600 nM,8.70,11400 nM,7.84,12800 nM,7.68,12500 nM,7.86,–
Tde,COc1ccc2c(c1)CCc1c(-c3ccccc3)c3n(c1-2)[B-](F)(F)[N+]1=C(c2ccc(OCC(=O)NCCCNC(=O)c4c(F)c(F)c(F)c(F)c4F)cc2)C(I)=C(c2ccccc2)C1=N3,> 50000 nM,7.42,> 50000 nM,7.39,> 50000 nM,7.13,> 50000 nM,7.25,–
Tde,COc1ccc(C2=[N+]3C(=Nc4c(-c5ccccc5)c5c(n4[B-]3(F)F)-c3ccc(OC)cc3CC5)C(c3ccccc3)=C2I)cc1,> 50000 nM,7.20,> 50000 nM,7.07,> 50000 nM,6.50,> 50000 nM,7.05,Activity [7]: Non-Toxic; Activity (HeLa [8]): Dose-Dependent Effect; Activity (HeLa [9]): inactive; Activity (HeLa [10]): Active; Activity [11]: Non-Toxic; Activity [12]: Non-Toxic; Activity [13]: Non-Toxic; Activity [14]: Non-Toxic; Activity [15]: Non-Toxic; Activity [16]: Non-Toxic; Activity (HeLa [17]): Active
Tde,Br.COc1ccc2c(c1)CCc1c(-c3ccccc3)c3n(c1-2)[B-](F)(F)[N+]1=C(c2ccc(OCC(=O)NCCC[P+](c4ccccc4)(c4ccccc4)c4ccccc4)cc2)C(I)=C(c2ccccc2)C1=N3,21300 nM,8.26,25800 nM,7.84,44400 nM,7.47,20100 nM,7.91,Drug uptake [18]: Active; Drug uptake [19]: Active; Drug uptake [20]: Not Active; Drug uptake [21]: Not Active; Activity (HeLa [8]): Dose-Dependent Effect; Activity (HeLa [22]): Active; Activity (HeLa [9]): inactive
Tde,COc1ccc2c(c1)CCc1c(-c3ccccc3)c3n(c1-2)[B-](F)(F)[N+]1=C(c2ccc(OCc4cn(CCCN5CCOCC5)nn4)cc2)C(I)=C(c2ccccc2)C1=N3,25400 nM,8.32,> 50000 nM,8.04,> 50000 nM,7.98,> 50000 nM,7.95,–
Tde,COc1ccc2c(c1)CCc1c(-c3ccccc3)c3n(c1-2)[B-](F)(F)[N+]1=C(c2ccc(OCc4cn(CCCNC(=O)c5c(F)c(F)c(F)c(F)c5F)nn4)cc2)C(I)=C(c2ccccc2)C1=N3,> 50000 nM,7.04,> 50000 nM,6.75,> 50000 nM,6.38,> 50000 nM,6.66,–
–,C=Cc1c(C)c2cc3nc(c(CC(=O)O)c4[nH]c(cc5nc(cc1[nH]2)C(C)=C5CC)c(C)c4C(=O)O)[C@@H](CCC(=O)O)[C@@H]3C [CHLORIN E6],> 50000 nM,6.02,> 50000 nM,6.22,> 50000 nM,5.64,> 50000 nM,6.10,Activity [7]: Non-Toxic; Activity (HeLa [23]): inactive; Activity [11]: Non-Toxic; Activity [12]: Non-Toxic; Activity [13]: Non-Toxic; Activity [14]: Non-Toxic; Activity [15]: Non-Toxic; Activity [16]: Non-Toxic
